Assays:
[1] = test system: causative organism of downey mildew; assay: Control of downey mildew on host plants (root drench and foliar treatment); format: in vivo; conditions: 500 parts per million by weight solution; root system application and foliar treatment of host plants
From the text: Solutions containing 500 parts per million by weight of the compound were formulated and applied to the host plants through two different modes of administration. First, the solution was applied to the root system of the host plants by drenching the chemicals into the pots or by placing the pots into larger cups containing the solution of the compound. Second, a foliar chemical treatment was applied to the host plants. The plants were then exposed to the pathogen and placed under conditions suitable for infection and development of the disease.

[2] = test system: causative organism of wheat leaf rust; assay: Control of wheat leaf rust by aqueous suspension of the compound; format: in vivo; conditions: 300 parts per million by weight, sole compound

Row | SMILES | control of the causative organism of downey mildew [1] [%] | kill of the causative organism of wheat leaf rust [2]
1 | CCc1cccc(NC(=O)Oc2ccc3oc(=O)sc3c2)c1 [Example 4, 5-[(3-Ethylphenyl)carbamoyloxy]-1,3-benzoxathiol-2-one] | 90 | –
2 | CCC(=O)OCCNC(=O)Oc1ccc2oc(=O)sc2c1 [Example 1, 5-[2-(Propionyloxy)ethylcarbamoyloxy]-1,3-benzoxathiol-2-one] | – | substantially complete kill

— patent publication US4349685A (priority 1981, dated 1982)
